Measurements from patent publication US8101647B2, “Spiro-oxindole compounds and their use as therapeutic agents” (Xenon Pharmaceuticals Inc., priority 2008, dated 2012).

How the values were obtained:
sodium channel = assay: Guanidine influx assay; format: cell-based, human or rat; conditions: known cell line that expresses a sodium channel; read-out: IC50 Activity Level
Excerpt: This example describes an in vitro assay for testing and profiling test agents against human or rat sodium channels stably expressed in cells of either an endogenous or recombinant origin. The assay is also useful for determining the IC50 of a sodium channel blocking compound. The assay is based on the guanidine flux assay described by Reddy, N. L., et al., J. Med. Chem. (1998), 41(17):3298-302.
The guanidine influx assay is a radiotracer flux assay used to determine ion flux activity of sodium channels in a high-throughput microplate-based format. The assay uses ^14C-guanidine hydrochloride in combination with various known sodium channel modulators, to assay the potency of test agents. Potency is determined by an IC50 calculation. Selectivity is determined by comparing potency of the compound for the channel of interest to its potency against other sodium channels (also called ‘selectivity profiling’).
Each of the test agents is assayed against cells that express the channels of interest. Voltage gated sodium channels are either TTX sensitive or insensitive. This property is useful when evaluating the activities of a channel of interest when it resides in a mixed population with other sodium channels. The following Table 1 summarizes cell lines useful in screening for a certain channel activity in the presence or absence of TTX.
It is also possible to employ recombinant cells expressing these sodium channels. Cloning and propagation of recombinant cells are known to those skilled in the art (see, for example, Klugbauer, N, et al., EMBO J. (1995), 14(6):1084-90; and Lossin, C., et al., Neuron (2002), 34, pp. 877-884).
Cells expressing the channel of interest are grown according to the supplier or in the case of a recombinant cell in the presence of selective growth media such as G418 (Gibco/Invitrogen). The cells are disassociated from the culture dishes with an enzymatic solution (1×) Trypsin/EDTA (Gibco/Invitrogen) and analyzed for density and viability using haemocytometer (Neubauer). Disassociated cells are washed and resuspended in their culture media then plated into Scintiplates (Beckman Coulter Inc.) (approximately 100,000 cells/well) and incubated at 37° C./5% CO2. for 20-24 hours. After an extensive wash with Low sodium HEPES-buffered saline solution (LNHBSS) (150 mM Choline Chloride, […] (Sigma), 1 mM Calcium Chloride, 5 mM Potassium Chloride, 1 mM Magnesium Chloride, 10 mM Glucose) agents diluted with LNHBSS are added to each well. (Varying concentrations of test agent may be used). The activation/radiolabel mixture contains aconitine (Sigma) to increase the percentage of time that the sodium channels are open, and ^14C-guanidine hydrochloride (ARC) to measure flux through the voltage-gated sodium channels.
After loading the cells with test agent and activation/radiolabel mixture, the Scintiplates are incubated at ambient temperature. Following the incubation, the Scintplates are extensively washed with LNHBSS supplemented with guanidine (Sigma). The Scintiplates are dried and then counted using a Wallac MicroBeta TriLux (Perkin-Elmer Life Sciences). The ability of the test agent to block sodium channel activity is determined by comparing the amount of ^14C-guanidine present inside the cells expressing the different sodium channels.
The IC50 value of a test agent for a specific sodium channel may be determined using the above general method. […] Typically the mid-point concentration of test agent is set at 1 μM, and sequential concentrations of half dilutions greater or smaller are applied (e.g. 0.5 μM; 5 μM and 0.25 μM; 10 μM and 0.125 μM; 20 μM etc.). The IC50 curve is calculated using the 4 Parameter Logistic Model or Sigmoidal Dose-Response Model formula (fit=(A+((B−A)/(1+((C/x)^D)))).
The fold selectivity, factor of selectivity or multiple of selectivity, is calculated by dividing the IC50 value of the test sodium channel by the reference sodium channel, for example, NaV1.5. […]

CYP3A4 = molecular target: T1, CYP3A4 (Homo sapiens, UniProt P08684); assay: Cytochrome P450 (CYP450) inhibition assay, fluorescence-based; format: in vitro ADME; conditions: recombinant CYP3A4 (P450 Baculosomes), probe Vivid substrate (fluorogenic)
T1 construct: purchased Invitrogen Corporation (Vivid CYP450 Screening Kit)
T1 sequence (P08684 whole entry): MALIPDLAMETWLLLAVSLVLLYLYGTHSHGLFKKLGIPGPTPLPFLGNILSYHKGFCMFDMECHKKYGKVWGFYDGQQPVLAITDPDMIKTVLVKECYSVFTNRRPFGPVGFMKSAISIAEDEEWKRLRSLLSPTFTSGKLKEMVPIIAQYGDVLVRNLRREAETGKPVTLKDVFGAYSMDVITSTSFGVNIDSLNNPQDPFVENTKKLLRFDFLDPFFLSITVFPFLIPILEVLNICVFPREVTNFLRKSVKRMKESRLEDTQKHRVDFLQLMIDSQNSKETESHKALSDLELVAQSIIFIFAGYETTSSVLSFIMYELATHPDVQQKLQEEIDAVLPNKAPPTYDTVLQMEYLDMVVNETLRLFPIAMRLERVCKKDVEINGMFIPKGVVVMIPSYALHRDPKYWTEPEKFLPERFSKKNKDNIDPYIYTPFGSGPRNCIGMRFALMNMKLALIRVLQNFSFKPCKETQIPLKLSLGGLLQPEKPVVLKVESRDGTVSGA

| Compound | melting point [°C] | IC50 (sodium channel) [µM] | inhibition at 10 µM (CYP3A4) [%] |
| --- | --- | --- | --- |
| Cl.O=C1N(Cc2ccc(N[C@@H]3CCNC3)cc2)c2ccccc2C12COc1cc3c(cc12)OCO3 (stereo partly drawn) | 190 to 195 | – | – |
| CN(C)CCOc1ccc2c(c1)OCC21C(=O)Nc2ccccc21 (stereo not drawn) [Example 2, 6-[2-(dimethylamino)ethoxy]spiro[1-benzofuran-3,3′-indol]-2′(1′H)-one] | 95 to 97 | ≥ 10 | – |
| CC(C)[Si](Oc1ccc2c(c1)OCC21C(=O)N(C[C@H]2CCCO2)c2ccccc21)(C(C)C)C(C)C (stereo partly drawn) [Example 4, 1′-[(2R)-tetrahydrofuran-2-ylmethyl]-6-{[tris(1-methylethyl)silyl]oxy}spiro[1-benzofuran-3,3′-indol]-2′(1′H)-one] | – | 0.1 to 1 | – |
| CC(C)(C)OC(=O)N1CC[C@@H](Nc2ccc(CN3C(=O)C4(COc5cc6c(cc54)OCO6)c4ccccc43)cc2)C1 (stereo partly drawn) [Example 5, tert-butyl (3R)-3-({4-[(2′-oxospiro[furo[2,3-f][1,3]benzodioxole-7,3′-indol]-1′(2′H)-yl)methyl]phenyl}-amino)pyrrolidine-1-carboxylate] | 115 to 118 | – | – |
| O=C1N(Cc2ccc(N[C@@H]3CCNC3)cc2)c2ccccc2C12COc1cc3c(cc12)OCO3 (stereo partly drawn) [Example 6, 1′-{4-[(3R)-pyrrolidin-3-ylamino]benzyl}spiro[furo[2,3-f][1,3]benzodioxole-7,3′-indol]-2′(1′H)-one] | 118 to 121 | – | – |
| CC(=O)N1CCC[C@H]1CN1C(=O)C2(COc3cc4c(cc32)CCO4)c2ccccc21 (stereo partly drawn) [Example 8, 1′-{[(2S)-1-acetylpyrrolidin-2-yl]methyl}-5,6-dihydrospiro[benzo[1,2-b:5,4-b′]difuran-3,3′-indol]-2′(1′H)-one] | 103 to 108 | 1 to 10 | > 50 |
| N/C(CN1C(=O)C2(COc3cc4c(cc32)OCO4)c2c(Cl)cccc21)=N\OC(=O)C1CC1 (stereo not drawn) [Example 11, 2-(4′-chloro-2′-oxospiro[furo[2,3-f][1,3]benzodioxole-7,3′-indol]-1′(2′H)-yl)-N′-[(cyclopropylcarbonyl)oxy]ethanimidamide] | – | 0.1 to 1 | > 50 |
| NC(=O)COc1cccc(CN2C(=O)C3(COc4cc5c(cc43)CCO5)c3ccccc32)c1 (stereo not drawn) [Example 13, 2-{3-[(2-oxo-5,6-dihydrospiro[benzo[1,2-b:5,4-b]difuran-3,3-indol]-1(2H)-yl)methyl]phenoxy}acetamide] | 109 to 111 | 0.001 to 0.1 | > 50 |
| NC(=O)COc1ccc(CN2C(=O)C3(COc4cc5c(cc43)CCO5)c3ccccc32)cc1 (stereo not drawn) [Example 13.1, 2-{4-[(2′-oxo-5,6-dihydrospiro[benzo[1,2-b:5,4-b′]difuran-3,3′-indol]-1′(2′H)-yl)methyl]phenoxy}acetamide] | 215 to 216 | 0.001 to 0.1 | < 50 |
| COCCOc1ccc(CN2C(=O)C3(COc4cc5c(cc43)OCCO5)c3ccccc32)cc1 (stereo not drawn) [Example 13.3, 1′-[4-(2-methoxyethoxy)benzyl]-2,3-dihydrospiro[furo[2,3-g][1,4]benzodioxine-8,3′-indol]-2′(1′H)-one] | 124 to 125 | 0.001 to 0.1 | > 50 |
| CCOC(=O)COc1ccc(CN2C(=O)C3(COc4cc5c(cc43)CCO5)c3ccccc32)cc1 (stereo not drawn) [Example 14.1, ethyl {4-[(2′-oxo-5,6-dihydrospiro[benzo[1,2-b:5,4-b′]difuran-3,3′-indol]-1′(2′H)-yl)methyl]phenoxy}acetate] | 158 to 159 | 0.001 to 0.1 | < 50 |
| CCOC(=O)COc1ccc(CN2C(=O)C3(COc4cc5c(cc43)OCCO5)c3ccccc32)cc1 (stereo not drawn) [Example 14.2, ethyl {4-[(2′-oxo-2,3-dihydrospiro[furo[2,3-g][1,4]benzodioxine-8,3′-indol]-1′(2′H)-yl)methyl]phenoxy}acetate] | 59 to 61 | 0.001 to 0.1 | < 50 |
| O=C(O)COc1cccc(CN2C(=O)C3(COc4cc5c(cc43)CCO5)c3ccccc32)c1 (stereo not drawn) [Example 15, {3-[(2′-oxo-5,6-dihydrospiro[benzo[1,2-b:5,4-b′]difuran-3,3′-indol]-1′(2′H)-yl)methyl]phenoxy}acetic acid] | 95 to 96 | 1 to 10 | < 50 |
| O=C(O)COc1ccc(CN2C(=O)C3(COc4cc5c(cc43)CCO5)c3ccccc32)cc1 (stereo not drawn) [Example 15.1, {4-[(2′-oxo-5,6-dihydrospiro[benzo[1,2-b:5,4-b′]difuran-3,3′-indol]-1′(2′H)-yl)methyl]phenoxy}acetic acid] | 265 to 266 | – | < 50 |
| O=C(O)COc1ccc(CN2C(=O)C3(COc4cc5c(cc43)OCCO5)c3ccccc32)cc1 (stereo not drawn) [Example 15.2, {4-[(2′-oxo-2,3-dihydrospiro[furo[2,3-g][1,4]benzodioxine-8,3′-indol]-1′(2′H)-yl)methyl]phenoxy}acetic acid] | 223 to 224 | – | < 50 |
| CNC(=O)COc1cccc(CN2C(=O)C3(COc4cc5c(cc43)CCO5)c3ccccc32)c1 (stereo not drawn) [Example 16, N-methyl-2-{3-[(2′-oxo-5,6-dihydrospiro[benzo[1,2-b:5,4-b′]difuran-3,3′-indol]-1′(2′H)-yl)methyl]phenoxy}acetamide] | 175 to 176 | 0.001 to 0.1 | > 50 |
| C[S+]([O-])c1ccc(CN2C(=O)C3(COc4cc5c(cc43)CCO5)c3ccccc32)cc1 (stereo not drawn) [Example 17, 1′-[4-(methylsulfinyl)benzyl]-5,6-dihydrospiro[benzo[1,2-b:5,4-b′]difuran-3,3′-indol]-2′(1′H)-one] | – | 0.1 to 1 | > 50 |
| CS(=O)(=O)N(c1ccc2c(c1)OCC21C(=O)N(C[C@H]2CCCO2)c2ccccc21)S(C)(=O)=O (stereo partly drawn) [Example 18, N-(methylsulfonyl)-N-{2′-oxo-1′-[(2R)-tetrahydrofuran-2-ylmethyl]-1′,2′-dihydrospiro[1-benzofuran-3,3′-indol]-6-yl}methanesulfonamide] | – | 1 to 10 | < 50 |
| CC(N)COc1ccc2c(c1)OCC21C(=O)N(C[C@H]2CCCO2)c2ccccc21.Cl (stereo partly drawn) [Example 20, 6-(2-aminopropoxy)-1′-[(2R)-tetrahydrofuran-2-ylmethyl]spiro[1-benzofuran-3,3′-indol]-2′(1′H)-one hydrochloride] | 120 to 130 | 1 to 10 | < 50 |
| CN(C)CCOc1ccc2c(c1)OCC21C(=O)N(C[C@H]2CCCO2)c2ccccc21 (stereo partly drawn) [Example 21, 6-[2-(dimethylamino)ethoxy]-1′-[(2R)-tetrahydrofuran-2-ylmethyl]spiro[1-benzofuran-3,3′-indol]-2′(1′H)-one] | – | 1 to 10 | < 50 |
| O=C1N(C[C@H]2CCCO2)c2ccccc2C12COc1cc3c(cc12)C(=NO)CO3 (stereo partly drawn) [Example 24, 1′-[(2R)-tetrahydrofuran-2-ylmethyl]spiro[benzo[1,2-b:5,4-b′]difuran-3,3′-indole]-2′,5(1′H,6H)-dione 5-oxime] | 82 to 100 | 1 to 10 | > 50 |
| N/C(CN1C(=O)C2(COc3cc4c(cc32)OCO4)c2ccccc21)=N\O (stereo not drawn) [Example 25, (1Z)-N′-hydroxy-2-(2′-oxospiro[furo[2,3-f][1,3]benzodioxole-7,3′-indol]-1′(2′H)-yl)ethanimidamide] | 235 to 238 | 0.1 to 1 | > 50 |
